This passage reports Ki results from BindingDB's records for doi:10.1002/(SICI)1098-2396(200002)35:2<79::AID-SYN1>3.0.CO;2-X (Institut De Recherches Servier, 2000).

Test [1] addresses T1, 5-hydroxytryptamine receptor 1A (Rattus norvegicus, UniProt P19327).
T1 sequence (P19327 whole entry): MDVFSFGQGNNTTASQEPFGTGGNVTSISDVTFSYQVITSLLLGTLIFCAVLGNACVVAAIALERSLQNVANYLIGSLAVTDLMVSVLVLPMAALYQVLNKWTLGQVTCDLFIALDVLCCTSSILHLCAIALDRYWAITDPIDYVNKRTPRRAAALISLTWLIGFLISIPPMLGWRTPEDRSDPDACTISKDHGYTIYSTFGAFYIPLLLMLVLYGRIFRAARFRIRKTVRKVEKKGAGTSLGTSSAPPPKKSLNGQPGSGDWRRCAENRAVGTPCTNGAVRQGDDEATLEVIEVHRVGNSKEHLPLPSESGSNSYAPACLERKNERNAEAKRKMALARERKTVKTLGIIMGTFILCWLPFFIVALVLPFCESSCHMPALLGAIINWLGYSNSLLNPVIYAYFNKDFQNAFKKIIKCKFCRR

Test [2] addresses T2, Alpha-1A adrenergic receptor (Homo sapiens, UniProt P35348).
T2 sequence (P35348 whole entry): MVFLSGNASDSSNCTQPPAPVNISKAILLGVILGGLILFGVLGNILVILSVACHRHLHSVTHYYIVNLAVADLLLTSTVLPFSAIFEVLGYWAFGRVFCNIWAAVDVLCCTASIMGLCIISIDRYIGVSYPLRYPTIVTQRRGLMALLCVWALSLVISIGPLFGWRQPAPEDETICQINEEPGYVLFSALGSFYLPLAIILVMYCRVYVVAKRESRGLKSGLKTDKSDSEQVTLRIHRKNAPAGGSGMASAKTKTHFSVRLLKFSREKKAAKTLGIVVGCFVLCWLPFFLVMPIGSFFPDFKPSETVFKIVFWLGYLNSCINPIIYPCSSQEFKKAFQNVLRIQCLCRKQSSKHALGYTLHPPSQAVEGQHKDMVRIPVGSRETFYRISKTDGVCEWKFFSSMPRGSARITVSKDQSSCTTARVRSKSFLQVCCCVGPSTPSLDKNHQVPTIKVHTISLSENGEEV

Test [3] deals with T3, Alpha-1A adrenergic receptor (Rattus norvegicus, UniProt P43140).
T3 sequence (P43140 whole entry): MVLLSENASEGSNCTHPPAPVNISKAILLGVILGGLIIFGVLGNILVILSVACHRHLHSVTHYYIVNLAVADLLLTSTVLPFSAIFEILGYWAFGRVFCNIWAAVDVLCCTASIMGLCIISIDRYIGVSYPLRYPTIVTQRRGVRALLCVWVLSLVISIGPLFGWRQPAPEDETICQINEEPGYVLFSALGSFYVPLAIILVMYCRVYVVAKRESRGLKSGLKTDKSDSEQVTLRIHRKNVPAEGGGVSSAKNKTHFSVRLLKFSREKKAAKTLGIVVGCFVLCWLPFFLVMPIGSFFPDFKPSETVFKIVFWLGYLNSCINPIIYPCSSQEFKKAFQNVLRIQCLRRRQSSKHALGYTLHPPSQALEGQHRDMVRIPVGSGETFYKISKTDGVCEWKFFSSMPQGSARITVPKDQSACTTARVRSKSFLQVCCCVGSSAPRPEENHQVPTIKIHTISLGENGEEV

In test [4] the target is T4, 5-hydroxytryptamine receptor 1A (Homo sapiens, UniProt P08908).
T4 sequence (P08908 whole entry): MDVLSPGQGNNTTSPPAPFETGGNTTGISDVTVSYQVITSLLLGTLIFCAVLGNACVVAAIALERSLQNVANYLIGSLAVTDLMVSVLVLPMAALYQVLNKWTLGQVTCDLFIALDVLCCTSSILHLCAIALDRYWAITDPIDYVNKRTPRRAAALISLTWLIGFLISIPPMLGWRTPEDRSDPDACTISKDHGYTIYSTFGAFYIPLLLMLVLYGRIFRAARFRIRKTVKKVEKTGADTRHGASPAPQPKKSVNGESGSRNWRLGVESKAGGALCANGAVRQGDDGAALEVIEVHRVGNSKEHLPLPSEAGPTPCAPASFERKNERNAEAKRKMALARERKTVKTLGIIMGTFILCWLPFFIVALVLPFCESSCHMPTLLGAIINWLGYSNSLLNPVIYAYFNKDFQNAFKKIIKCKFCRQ

For test [5], the target named is 5-hydroxytryptamine receptor 2A (Rattus norvegicus, UniProt P14842).
5-hydroxytryptamine receptor 2A, sequence (P14842 whole entry): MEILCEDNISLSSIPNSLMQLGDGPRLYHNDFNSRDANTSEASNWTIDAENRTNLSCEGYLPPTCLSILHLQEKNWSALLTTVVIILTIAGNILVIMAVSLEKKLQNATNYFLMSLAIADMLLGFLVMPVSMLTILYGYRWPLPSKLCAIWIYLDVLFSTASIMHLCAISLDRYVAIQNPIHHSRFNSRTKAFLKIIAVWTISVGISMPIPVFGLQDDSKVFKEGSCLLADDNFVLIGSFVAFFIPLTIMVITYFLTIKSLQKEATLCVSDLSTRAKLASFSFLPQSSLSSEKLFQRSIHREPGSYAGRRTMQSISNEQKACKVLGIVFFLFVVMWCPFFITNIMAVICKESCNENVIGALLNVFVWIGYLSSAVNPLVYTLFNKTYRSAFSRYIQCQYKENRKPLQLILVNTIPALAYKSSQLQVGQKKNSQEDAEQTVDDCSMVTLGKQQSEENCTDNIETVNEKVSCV
For test [6], the target named is T5, Alpha-1B adrenergic receptor (Homo sapiens, UniProt P35368).
T5 sequence (P35368 whole entry): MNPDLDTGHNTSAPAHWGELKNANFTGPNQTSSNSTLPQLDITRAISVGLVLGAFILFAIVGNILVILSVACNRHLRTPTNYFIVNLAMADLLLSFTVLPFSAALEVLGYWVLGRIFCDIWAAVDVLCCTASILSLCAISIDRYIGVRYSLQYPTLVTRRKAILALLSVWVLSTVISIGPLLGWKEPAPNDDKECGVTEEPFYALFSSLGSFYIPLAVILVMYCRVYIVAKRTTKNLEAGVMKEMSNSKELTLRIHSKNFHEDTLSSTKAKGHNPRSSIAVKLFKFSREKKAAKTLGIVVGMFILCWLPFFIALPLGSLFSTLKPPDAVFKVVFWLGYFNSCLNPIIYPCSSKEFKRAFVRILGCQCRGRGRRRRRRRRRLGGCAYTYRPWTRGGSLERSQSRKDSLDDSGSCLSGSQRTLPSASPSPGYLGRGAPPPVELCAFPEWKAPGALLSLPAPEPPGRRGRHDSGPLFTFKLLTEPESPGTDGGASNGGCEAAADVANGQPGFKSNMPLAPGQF

The target in test [7] is T6, Alpha-2C adrenergic receptor (Rattus norvegicus, UniProt P22086).
T6 sequence (P22086 whole entry): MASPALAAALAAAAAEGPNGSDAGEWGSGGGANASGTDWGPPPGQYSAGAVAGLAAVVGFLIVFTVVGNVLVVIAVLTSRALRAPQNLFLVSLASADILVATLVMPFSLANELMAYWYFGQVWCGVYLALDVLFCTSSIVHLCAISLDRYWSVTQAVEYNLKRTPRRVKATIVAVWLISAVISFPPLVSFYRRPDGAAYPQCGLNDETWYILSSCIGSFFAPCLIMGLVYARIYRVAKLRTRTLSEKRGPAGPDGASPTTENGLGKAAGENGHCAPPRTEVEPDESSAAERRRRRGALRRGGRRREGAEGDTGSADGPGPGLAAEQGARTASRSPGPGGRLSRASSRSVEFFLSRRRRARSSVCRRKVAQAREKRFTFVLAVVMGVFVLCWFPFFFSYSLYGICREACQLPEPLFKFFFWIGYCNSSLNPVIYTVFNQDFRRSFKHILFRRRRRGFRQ

As a reminder, the Ki is a measure of affinity in units of concentration, obtained from inhibition or displacement. Read a low Ki as higher affinity.

Turning to `Fc1cccc2c1OC1CNCC1O2` (configuration not stated) [CAS_105182-45-4], the Ki came to 631 nM in test [1]; 501 nM in test [2]; 794 nM in test [3]; 158 nM in test [4]; 1000 nM in test [5]; 1000 nM in test [6]. The same compound gave an inhibitory constant (Ki) in test [7] of 0.5 nM.
